The values that follow come from patent US20230181678A1, “NOVEL ANTIBACTERIAL PEPTIDE OR PEPTIDE ANALOG AND USE THEREOF” (CAMP THERAPEUTICS INC., priority 2020, published 2023).

* marks the point of attachment. Octanoyl = CCCCCCCC(=O)*

For one experiment, the system named is K.p. ATCC 700603. The experiment can be described thus: MIC assay, sensitizing effect of peptide on rifampicin. It is filed as cell-based, Klebsiella pneumoniae. The conditions noted are these: FIG. 9C, peptide 4 ug/ml. Here is the method: (§1) All MIC assay experiments were performed using the Clinical and Laboratory Standards Institute (CLSI) guidelines (Clinical & Laboratory Standards Institute: CLSI Guidelines, 2017). Bacterial cells cultured overnight were diluted to 0.05 McFarland standard using McFarland (KIT […] PLUS INSTRUMENT, Biomerieux) in Muller Hinton II Broth (cation-adjusted) (Difco). The cells were inoculated at 1.5×10^5 CFU per 200 μL solution of each well in a 96-well plate. The peptide and the antibiotic were prepared using 2-fold serially diluted concentrations. […] Incubation was performed at 37° C. for 18 hours, and then absorbance was measured at 600 nm using an EPOCH2 microplate reader (BioTek, Winooski, USA) to calculate a MIC value. The MIC value was defined as a concentration of the antibiotic or peptide at which bacterial growth was inhibited to a level of lower than 10% growth of the positive control. Fold reduction was calculated using the following expression.
(§2) ATCC 25922, A.b. ATCC 17978, K.p. ATCC 700603, and P.a. ATCC 27853, or CRE (E.c. NDM-1, K.p. NDM-1, or K.p. KPC) (FIGS. 9 and 10).

A further experiment has as its system E. coli ATCC 25922. Description: MIC assay, sensitizing effect of peptide on antibacterial agents. It counts as cell-based. Here is the method: as §1
Fold reduction=MIC of antibiotic alone/MIC of antibiotic in presence of sensitizing peptide
Using the same MIC assay method as in Example 1, sensitizing effects of the peptide L9P (CMP1107, 1 ug/ml), which is known as a conventional sensitive AMP, and CMP1401 (1 ug/ml) were compared on existing antibacterial agents against E. coli ATCC 25922 (FIG. 5A).
In addition, MIC screening was used to compare sensitizing effects of the competitive drug SPR741 and the peptide CMP1401 or CMP1501 on the existing antibacterial agents against E. coli ATCC 25922 (FIGS. 5B and 5C). SPR741, which is a previously known polymyxin B (PMB) analog, is a sensitive AMP, and is a drug that has been identified through preclinical experiments to be effective against Gram-negative bacteria in a case of being used together with existing Gram-positive antibiotics.
as §2

The test system of the next experiment is Ec NDM-1. Description: MIC assay, sensitizing effect of peptide on rifampicin (CRE). It is filed as cell-based, E. coli. The conditions noted are these: FIG. 9E; Ec NDM-1 (CRE); peptide 4 ug/ml. Here is the method:
as §1, §2

Experiment [1] deals with Acinetobacter baumannii ATCC 17978. Description: MIC assay, sensitizing effect of peptide on antibiotics. It counts as cell-based.
A further experiment has as its system A. baumannii ATCC 17978. The experiment can be described thus: Neutropenic mouse thigh infection model. It counts as in vivo. The procedure: To induce neutropenia in 6-week-old female ICR (CD-1) mice weighing 23 g to 27 g (Orient Bio, Seongnam, Korea), the mice were treated (subcutaneously injected) with 150 mg/kg and 100 mg/kg of cyclophosphamide (CP), respectively, 5 days and 2 days before thigh infection. A. baumannii ATCC 17978 was harvested, washed, and suspended in sterile saline. The mice were anesthetized and infected with 1×10^5 CFU A. baumannii ATCC 17978 in the right and left thighs. […] The sensitizing peptide CMP1401 was administered by intraperitoneal injection 1, 3, 5, and 7 hours after infection. The mice were euthanized 9 hours after bacterial injection. Both thighs were harvested and suspended in sterile saline. The thighs were homogenized and serially diluted in sterile saline. The homogenized thighs were applied to tryptic soy agar plates, incubated overnight at 37° C., and the number of colonies was counted.

Experiment [2] concerns E.c. ATCC 25922, A.b. ATCC 17978, K.p. ATCC 700603, P.a. ATCC 27853, or CRE (E.c. NDM-1, K.p. NDM-1, or K.p. KPC). The experiment can be described thus: MIC assay, comparison with L9P on rifampicin or colistin. It is filed as cell-based. The conditions noted are these: FIGS. 9 and 10. The procedure:
as §1, §2

The subject of experiment [3] is outer membrane of E. coli NDM-1. The experiment can be described thus: Enzyme assay, outer membrane leakage (β-lactamase release, CENTA). It counts as cell-based. Particulars: peptide 0.63 or 1.30 uM, 37° C., 1 h; 200 μM CENTA. Here is the method: (§3) It was observed, through an enzyme assay, whether the sensitizing peptide destroyed the outer and inner membranes of Gram-negative bacteria. In the presence of the sensitizing peptide, it was observed whether in a case where 1.5 mM ONPG was used together therewith, β-galactosidase was released from E. coli ATCC 25922 for the inner membrane, and whether in a case where 200 μM CENTA was used together therewith, β-lactamase was released from E. coli NDM-1 for the outer membrane.
Specifically, to determine leakage of the outer membrane, activity of the β-lactamase released from the outer membrane was evaluated. New Delhi metallo-β-lactamase-1 (NDm-1)-producing E. coli cells were washed three times with DPBS and suspended in the same buffer. The cells were diluted to an OD600 of 0.2 and treated with the peptide at a concentration of 0.63 or 1.30 uM at 37° C. for 1 h. After centrifugation, the supernatant was incubated with 200 μM CENTATM β-lactamase substrate at 37° C. for 1 hour. An optical density was obtained by measuring absorbance of a product of enzyme reaction at 405 nm using a microplate reader (Molecular Devices Co., Menlo Park, Calif.).
The results are illustrated in FIGS. 12A and 12B. The y-axis is absorbance measured at 405 nm, and higher absorbance is observed as a higher amount of β-lactamase is released due to destruction of the membrane.

Experiment [4] relates to inner membrane of E. coli ATCC 25922. Description: Enzyme assay, inner membrane leakage (β-galactosidase release, ONPG). It counts as cell-based. Particulars: 1.5 mM ONPG. Here is the method:
as §3
To determine leakage of the inner membrane, release of the cytoplasmic enzyme β-galactosidase was evaluated. The bacteria were diluted to OD600=1 and 1.5 mM ONPG (O-nitrophenyl-β-D-galactopyranoside) was added. Absorbance of a product of enzyme reaction was measured at 420 nm. The other procedures were carried out in the same manner as in the experiment for outer membrane destruction.

Another experiment deals with K.p. KPC. Description: MIC assay, sensitizing effect of peptide on rifampicin or colistin (CRE). The conditions noted are these: peptide 4 ug/ml. It is filed as cell-based, Klebsiella pneumoniae. Here is the method: as §1, §2
A further experiment has as its system P.a. ATCC 27853. Description: MIC assay, sensitizing effect of peptide on rifampicin or colistin. It counts as cell-based, Pseudomonas aeruginosa. The conditions noted are these: peptide 4 ug/ml. The procedure:
as §1, §2

On to “OctA-KKALKLAKKPLKLLK-NH2 (Octanoyl-KKALKLAKKPLKLLK-NH2) [CMP1401]”, for which the “Decreased MIC value of rifampicin at peptide concentration of 4 ug/ml” value in the experiment on K.p. ATCC 700603 is 7.8 ng/mL; in the experiment on E. coli ATCC 25922 (FIG. 9A, E.c. ATCC 25922, peptide 4 ug/ml), 2 ng/mL; in the experiment on Ec NDM-1, 4 ng/mL; in experiment [1] (FIG. 9B, A.b. ATCC 17978, peptide 4 ug/ml), 31 ng/mL; with K.p. KPC (FIG. 9G) it was 7.8 ng/mL; in the experiment on P.a. ATCC 27853 (FIG. 9D) it was 250 ng/mL. The “Decreased MIC value of colisitin at peptide concentration of 4 ug/ml” value with E. coli ATCC 25922 (FIG. 10A, E.c. ATCC 25922, peptide 4 ug/ml) turned out to be 7.8 ng/mL; in the experiment with K.p. KPC (FIG. 10C), 250 ng/mL; in the experiment on P.a. ATCC 27853 (FIG. 10B), 16 ng/mL. In addition, the “sensitizing effect on existing antibacterial agents compared with SPR741” value in the experiment on E. coli ATCC 25922 (FIGS. 5B and 5C) is “almost the same or much better sensitizing effect”. For the same substance, the “sensitizing effect compared with SPR741 at half its concentration” value with E. coli ATCC 25922 (peptide concentration decreased by half as compared with SPR741, FIG. 5C) is “equal or superior effect”. In addition, in the experiment with E. coli ATCC 25922 (peptides 1 ug/ml, FIG. 5A), the “sensitizing effect on existing antibacterial agents compared with L9P” value was “very good sensitizing effect”. The “sensitizing effect for fusidic acid” value in experiment [1] (peptide 0.31 μM, vs fusidic acid alone) is 250 times. Further, the “sensitizing effect for novobiocin” value in [1] (peptide 0.31 μM, vs novobiocin alone) came out at 16 times. In experiment [1] (peptide 0.31 μM, vs rifampicin alone), the “sensitizing effect for rifampicin” value was 64 times. In addition, in the experiment on A. baumannii ATCC 17978 (CMP1401 100 mg/kg in the presence of 20 mg/kg of rifampicin), the “decrease in number of colonies compared with rifampicin alone” value was 14 fold. For the same substance, the “number of colonies, peptide administered alone” value with A. baumannii ATCC 17978 (CMP1401 alone at 50 mg/kg) is “No changes were observed in the number of colonies”. For the same substance, the “therapeutic efficacy of combination therapy with rifampicin” value in the experiment on A. baumannii ATCC 17978 (rifampicin and CMP1401) is on record as “excellent therapeutic efficacy”. Also, the “sensitizing effect on rifampicin or colistin compared with L9P” value in [2] was “very good sensitizing effect”. In addition, the “destruction of outer membrane (β-lactamase release)” value in experiment [3] is reported as “did not destroy these membranes”. The “destruction of inner membrane (β-galactosidase release)” value in [4] is listed as “did not destroy these membranes”.
